In ChEMBL document CHEMBL1201862, “PubChem BioAssay data set” (2004):
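How tested: cells in 96-well plates exposed to compound for 48 hours at five concentrations. Abbreviation: GI50, concentration required for 50% inhibition of growth.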 Active and inactive are the calls of the source. Rule as the data show it: active = GI50 up to about 1.1 µM and inactive = higher.

How the values were obtained:
Assay in all cases: NCI tumour cell line growth inhibition, 48 h
[1] = test system: ACHN
[2] = test system: BT-549
[3] = test system: CAKI-1
[4] = test system: COLO 205
[5] = test system: EKVX
[6] = test system: HCT-116
[7] = test system: HCT-15
[8] = test system: MDA-MB-231
[9] = test system: NCI-H226
[10] = test system: NCI-H460
[11] = test system: OVCAR-4
[12] = test system: PC-3
[13] = test system: RPMI-8226
[14] = test system: SK-MEL-5
[15] = test system: SNB-19
[16] = test system: SNB-75
[17] = test system: T47D
[18] = test system: U-251
[19] = test system: SR

| Compound | GI50 [1] | GI50 [2] | GI50 [3] | GI50 [4] | GI50 [5] | GI50 [6] | GI50 [7] | GI50 [8] | GI50 [9] | GI50 [10] | GI50 [11] | GI50 [12] | GI50 [13] | GI50 [14] | GI50 [15] | GI50 [16] | GI50 [17] | GI50 [18] | GI50 [19] |
| --- | --- | --- | --- | --- | --- | --- | --- | --- | --- | --- | --- | --- | --- | --- | --- | --- | --- | --- | --- |
| CC1=CC(=O)/C(=C/Nc2nc(-c3ccc([N+](=O)[O-])cc3)cs2)C(=O)O1 | > 100 µM (inactive) | > 100 µM (inactive) | > 100 µM (inactive) | > 100 µM (inactive) | > 100 µM (inactive) | > 100 µM (inactive) | > 100 µM | > 100 µM (inactive) | > 100 µM (inactive) | > 100 µM (inactive) | > 100 µM (inactive) | 46.5 µM (inactive) | > 100 µM (inactive) | > 100 µM (inactive) | 86.5 µM (inactive) | > 100 µM (inactive) | > 100 µM (inactive) | > 100 µM (inactive) | – |
| CCC(C)NC(=S)N/N=C(\C)c1nc2cccnc2[nH]1 (stereo unspecified) | 9.57 µM (inactive) | 13.5 µM (inactive) | 4.07 µM (inactive) | 3.54 µM (inactive) | 6.73 µM (inactive) | 6.05 µM (inactive) | 5.64 µM | 6.95 µM (inactive) | 4.42 µM (inactive) | 10 µM (inactive) | 4.91 µM (inactive) | 8.85 µM (inactive) | 21.6 µM (inactive) | 4.72 µM (inactive) | 32.4 µM (inactive) | 48.5 µM (inactive) | 2.1 µM (inactive) | 9.14 µM (inactive) | 3.85 µM (inactive) |
| O=[N+]([O-])c1ccc(/N=N\c2c(O)ccc3ccccc23)c([N+](=O)[O-])c1 | > 100 µM (inactive) | > 100 µM (inactive) | > 100 µM (inactive) | > 100 µM (inactive) | > 60.4 µM (inactive) | > 100 µM (inactive) | > 100 µM | > 48.6 µM (inactive) | > 100 µM (inactive) | > 100 µM (inactive) | > 100 µM (inactive) | > 100 µM (inactive) | > 83.4 µM (inactive) | > 100 µM (inactive) | > 100 µM (inactive) | > 100 µM (inactive) | > 100 µM (inactive) | > 100 µM (inactive) | – |
| N#CCCNCCN(CCN(C(=O)Nc1ccccc1)c1ccccc1)C(=O)Nc1ccccc1 | 47.2 µM (inactive) | 38.4 µM (inactive) | – | 20.2 µM (inactive) | 67.1 µM (inactive) | 21.4 µM (inactive) | 41.5 µM | > 100 µM (inactive) | 54.7 µM (inactive) | 37.9 µM (inactive) | – | 57.3 µM (inactive) | 57 µM (inactive) | 19.9 µM (inactive) | 83.2 µM (inactive) | 25.8 µM (inactive) | 41.5 µM (inactive) | > 100 µM (inactive) | 34.2 µM (inactive) |
| NNc1nncc2[nH]nnc12 | > 100 µM (inactive) | > 100 µM (inactive) | > 100 µM (inactive) | > 100 µM (inactive) | > 100 µM (inactive) | > 100 µM (inactive) | > 100 µM | > 100 µM (inactive) | > 100 µM (inactive) | > 100 µM (inactive) | – | > 100 µM (inactive) | > 100 µM (inactive) | > 10 µM (inactive) | > 100 µM (inactive) | 5.74 µM (inactive) | > 100 µM (inactive) | > 100 µM (inactive) | 41.5 µM (inactive) |
| COc1cc2c(cc1OC)C1c3ccccc3CCN1CCC2.[O-][Cl+3]([O-])([O-])O (stereo unspecified) | > 100 µM (inactive) | 23.6 µM (inactive) | > 100 µM (inactive) | > 100 µM (inactive) | > 100 µM (inactive) | 74.3 µM (inactive) | > 100 µM | > 100 µM (inactive) | > 100 µM (inactive) | – | – | > 100 µM (inactive) | 63.7 µM (inactive) | > 100 µM (inactive) | > 100 µM (inactive) | > 100 µM (inactive) | > 100 µM (inactive) | > 100 µM (inactive) | > 100 µM (inactive) |
| C=C(C)[C@@H]1CC[C@]2(C(=O)O)CC[C@]3(C)[C@H](CC[C@@H]4[C@@]5(C)CC[C@H](C(=O)/C=C/c6ccc(O)cc6)C(C)(C)[C@@H]5CC[C@]43C)[C@@H]12 | – | 10.4 µM (inactive) | 2.64 µM (inactive) | 2.39 µM (inactive) | 2.47 µM (inactive) | 2.51 µM (inactive) | 3.45 µM | 6.65 µM (inactive) | – | 2.73 µM (inactive) | 9.98 µM (inactive) | 5.98 µM (inactive) | – | 2.55 µM (inactive) | 6.92 µM (inactive) | > 10 µM (inactive) | 4.58 µM (inactive) | 2.93 µM (inactive) | 4.06 µM (inactive) |
| O=[N+]([O-])C(=C1Nc2ccccc2N1)/C(Cl)=C(/Cl)N1CCOCC1 | 71.8 µM (inactive) | 27.5 µM (inactive) | > 100 µM (inactive) | 80.9 µM (inactive) | > 100 µM (inactive) | 89.5 µM (inactive) | 31.8 µM | 36.1 µM (inactive) | > 100 µM (inactive) | > 100 µM (inactive) | 25.4 µM (inactive) | 87.7 µM (inactive) | 57.7 µM (inactive) | – | > 100 µM (inactive) | 97.7 µM (inactive) | 15.1 µM (inactive) | 61.9 µM (inactive) | – |
| C=C1C(=O)OC2C1CC(OC(C)=O)/C(C)=C/CCC1(C)OC21 (stereo unspecified) | > 100 µM (inactive) | > 100 µM (inactive) | > 100 µM (inactive) | > 100 µM (inactive) | > 100 µM (inactive) | > 100 µM (inactive) | > 100 µM | > 100 µM (inactive) | > 100 µM (inactive) | > 100 µM (inactive) | > 100 µM (inactive) | > 100 µM (inactive) | > 100 µM (inactive) | > 100 µM (inactive) | > 100 µM (inactive) | > 100 µM (inactive) | > 100 µM (inactive) | > 100 µM (inactive) | – |
| C=CCOc1ccc(C(=N/NC(=O)c2ccccc2)/N=N/c2ccccc2)cc1OC | > 100 µM (inactive) | 42.5 µM (inactive) | > 100 µM (inactive) | 55 µM (inactive) | > 100 µM (inactive) | 67.9 µM (inactive) | 63.8 µM | 70.6 µM (inactive) | 60.5 µM (inactive) | 40.6 µM (inactive) | 89.9 µM (inactive) | 79.1 µM (inactive) | – | 50.5 µM (inactive) | > 100 µM (inactive) | > 100 µM (inactive) | 24 µM (inactive) | 79.4 µM (inactive) | 77.1 µM (inactive) |
| O=C1NC(=S)N/C1=C\c1ccc(Cl)cc1 | – | > 100 µM (inactive) | > 100 µM (inactive) | 80.5 µM (inactive) | 33.6 µM (inactive) | > 100 µM (inactive) | > 100 µM | > 100 µM (inactive) | > 100 µM (inactive) | – | 39.2 µM (inactive) | > 100 µM (inactive) | 77.3 µM (inactive) | 41.8 µM (inactive) | > 100 µM (inactive) | > 100 µM (inactive) | 42.5 µM (inactive) | > 100 µM (inactive) | – |
| CSc1c(C#N)c(O)nc(N)c1C(=O)Nc1ccc(C)cc1 | – | > 100 µM (inactive) | 32.2 µM (inactive) | > 100 µM (inactive) | > 100 µM (inactive) | > 100 µM (inactive) | > 100 µM | > 100 µM (inactive) | 34.4 µM (inactive) | > 100 µM (inactive) | > 100 µM (inactive) | > 100 µM (inactive) | > 100 µM (inactive) | > 100 µM (inactive) | > 100 µM (inactive) | > 100 µM (inactive) | > 100 µM (inactive) | > 100 µM (inactive) | > 100 µM (inactive) |
| O=C(O)c1ccccc1/C=N/N=C1c2ccccc2-c2ccccc21 | 45.1 µM (inactive) | 71.9 µM (inactive) | 35.3 µM (inactive) | 32.1 µM (inactive) | 29 µM (inactive) | 31 µM (inactive) | 44.8 µM | 59 µM (inactive) | 20.8 µM (inactive) | 26.7 µM (inactive) | 35.2 µM (inactive) | 30.3 µM (inactive) | 20.2 µM (inactive) | 33.3 µM (inactive) | 39.9 µM (inactive) | – | 30.7 µM (inactive) | 22 µM (inactive) | 27.3 µM (inactive) |
| C=C(C(=O)OCC)C(=O)OCC | > 100 µM (inactive) | > 100 µM (inactive) | > 100 µM (inactive) | > 100 µM (inactive) | > 100 µM (inactive) | > 100 µM (inactive) | > 100 µM | > 100 µM (inactive) | > 100 µM (inactive) | > 100 µM (inactive) | – | > 100 µM (inactive) | > 100 µM (inactive) | > 100 µM (inactive) | > 100 µM (inactive) | > 100 µM (inactive) | > 100 µM (inactive) | > 100 µM (inactive) | 20.7 µM (inactive) |
| Cc1ccc(Cc2n[nH]c(=O)n2/N=C\CC/C=N\n2c(Cc3ccc(C)cc3)n[nH]c2=O)cc1 | 47.1 µM (inactive) | 23 µM (inactive) | > 100 µM (inactive) | > 100 µM (inactive) | 33.7 µM (inactive) | 33.1 µM (inactive) | 26 µM | 31.3 µM (inactive) | 24.4 µM (inactive) | – | > 100 µM (inactive) | 31.3 µM (inactive) | 57.9 µM (inactive) | 42.2 µM (inactive) | 39.6 µM (inactive) | 16.6 µM (inactive) | 38.6 µM (inactive) | 19.2 µM (inactive) | – |
| Cn1cc(C[C@@H](N)C(=O)O)c2ccccc21 [INDOXIMOD] | > 100 µM (inactive) | > 100 µM (inactive) | > 100 µM (inactive) | > 100 µM (inactive) | > 100 µM (inactive) | > 100 µM (inactive) | > 100 µM | > 100 µM (inactive) | > 100 µM (inactive) | > 100 µM (inactive) | > 100 µM (inactive) | > 100 µM (inactive) | > 100 µM (inactive) | – | > 100 µM (inactive) | > 100 µM (inactive) | > 100 µM (inactive) | > 100 µM (inactive) | > 100 µM (inactive) |
